Article PMC12250302, “Synthesis, Antimicrobial Activities, and Model of Action of Novel Tetralone Derivatives Containing Aminoguanidinium Moiety” (International Journal of Molecular Sciences, 2025)
Values after ≈ are worked out from the molar mass of the structure shown.

Columns and labels:
Assay in all cases: MIC and MBC testing, broth microdilution
P. aeruginosa ATCC 27853 = assay type: cell-based, Pseudomonas aeruginosa; conditions: Pseudomonas aeruginosa
Method in brief: (§1)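 Broth microdilution in MH broth, 2-fold compound series from DMSO stocks; inoculum from log-phase culture diluted to 1 × 10^6 CFU/mL prior to addition; 37 °C, 18 h.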

A. baumannii ATCC 19606 = assay type: cell-based, Acinetobacter baumannii; conditions: Acinetobacter baumannii
Method in brief: as §1

S. aureus ATCC 29213 = assay type: cell-based, Staphylococcus aureus; conditions: Staphylococcus aureus, ATCC29213, S. aureus ATCC 29213
Method in brief: as §1

MRSA-1 = assay type: cell-based, Staphylococcus aureus; conditions: Staphylococcus aureus, MRSA-1
Method in brief: (§2)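 Triplicate broth microdilution: MH broth, serial 2× dilution of compounds dissolved in DMSO, 1 × 10^6 CFU/mL bacteria grown to log phase, 18 h at 37 °C, followed by MBC determination.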

MRSA-2 = assay type: cell-based, Staphylococcus aureus; conditions: Staphylococcus aureus, MRSA-2
Method in brief: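 Broth microdilution in MH broth; two-fold serial dilutions of DMSO-dissolved compound; inoculum 1 × 10^6 CFU/mL from log-phase culture; 37 °C, 18 h; triplicates; MBC also read.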

[1] = tested on: clinical S. aureus isolate LMY45; assay type: cell-based, Staphylococcus aureus; conditions: Staphylococcus aureus, LMY45
Method in brief: as §2

[2] = tested on: clinical S. aureus isolate LMY47; assay type: cell-based, Staphylococcus aureus; conditions: Staphylococcus aureus, LMY47
Method in brief: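 Strains grown to logarithmic phase were diluted to 1 × 10^6 CFU/mL, combined with compound two-fold dilution series in MH broth, and incubated at 37 °C for 18 h. MIC and MBC were then recorded, with triplicate wells per concentration.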

[3] = tested on: clinical S. aureus isolate LMY48; assay type: cell-based, Staphylococcus aureus; conditions: Staphylococcus aureus, LMY48
Method in brief: as §2

[4] = tested on: clinical S. aureus isolate LMY46; assay type: cell-based, Staphylococcus aureus; conditions: Staphylococcus aureus, LMY46
Method in brief: as §2

What does the source list for [H]/N=C(\N)NN=C1CCCc2cc(OCCCCCCC)ccc21 [Compound 2D, (E)-2-(6-(heptyloxy)-3,4-dihydronaphthalen-1(2H)-ylidene)hydrazine-1-carboximidamide]?
MIC (P. aeruginosa ATCC 27853; ATCC27853, 18 h, read-out: MIC): 16 µg/mL (≈ 50.6 µM); MBC (P. aeruginosa ATCC 27853; ATCC27853, read-out: MBC): 32 µg/mL (≈ 101 µM); MIC (A. baumannii ATCC 19606; ATCC19606, 18 h, read-out: MIC): 4 µg/mL (≈ 12.6 µM); MBC (A. baumannii ATCC 19606; ATCC19606, read-out: MBC): 16 µg/mL (≈ 50.6 µM); MIC (S. aureus ATCC 29213; 18 h, read-out: MIC): 0.5 µg/mL (≈ 1.58 µM); MBC (S. aureus ATCC 29213; read-out: MBC): 4 µg/mL (≈ 12.6 µM); MIC (MRSA-1; 18 h, read-out: MIC): 1 µg/mL (≈ 3.16 µM); MBC (MRSA-1; read-out: MBC): 16 µg/mL (≈ 50.6 µM); MIC (MRSA-2; 18 h, read-out: MIC): 1 µg/mL (≈ 3.16 µM); MBC (MRSA-2; read-out: MBC): 4 µg/mL (≈ 12.6 µM); MIC ([1]; 18 h, read-out: MIC): 2 µg/mL (≈ 6.32 µM); MBC ([1]; read-out: MBC): 2 µg/mL (≈ 6.32 µM); MIC ([2]; 18 h, read-out: MIC): 1 µg/mL (≈ 3.16 µM); MBC ([2]; read-out: MBC): 4 µg/mL (≈ 12.6 µM); MIC ([3]; 18 h, read-out: MIC): 2 µg/mL (≈ 6.32 µM); MBC ([3]; read-out: MBC): 2 µg/mL (≈ 6.32 µM); MIC ([4]; 18 h, read-out: MIC): 4 µg/mL (≈ 12.6 µM); MBC ([4]; read-out: MBC): 32 µg/mL (≈ 101 µM)
